Experimental data taken from patent US11286274B2, “Nicotinamide riboside derivatives and their uses” (MitoPower LLC, priority 2017, dated 2022).
Counter-ions that a name gives are not always drawn.

Key:
Jurkat cells = assay: Total cellular NAD+ level after MNNG-induced depletion (NAD/NADH Glo Assay), Jurkat cells; format: cell-based; details: for % NAD+ Repletion: Jurkat, MNNG 100 μM, compound 1 mM; for increase of NAD+ level: Jurkat cells, 100 μM MNNG 30 min
HEPG2 cells = assay: Total cellular NAD+ level after MNNG-induced depletion (NAD/NADH Glo Assay), HEPG2 cells; format: cell-based; details: HEPG2, MNNG 100 μM, compound 1 mM

Compound | % NAD+ Repletion (Jurkat cells) [%] | % NAD+ Repletion (HEPG2 cells) [%] | increase of NAD+ level (Jurkat cells; then NR 100 μM without olaparib for 3.5 hr) [%] | increase of NAD+ level (Jurkat cells; then olaparib 5 nM without NR for 3.5 hr) [%]
NC(=O)c1ccc[n+]([C@@H]2O[C@H](COC(=O)CCC(=O)O)[C@@H](O)[C@H]2O)c1 [MP-42, 3-Carboxamide-1-((2R,3R,4S,5R)-5-(((3-carboxypropanoyl)oxy)methyl)-3,4-dihydroxytetrahydrofuran-2-yl)pyridin-1-ium trifluoroacetate] | 8.2 | 23.7 | – | –
COC(=O)CCC(=O)OC[C@H]1O[C@@H]([n+]2cccc(C(N)=O)c2)[C@H](O)[C@@H]1O [MP-43, 3-Carboxamide-1-((2R,3R,4S,5R)-3,4-dihydroxy-5-(((4-methoxy-4-oxobutanoyl)oxy)methyl)tetrahydrofuran-2-yl)pyridin-1-ium trifluoroacetate] | 12.9 | 31.1 | – | –
NC(=O)c1ccc[n+]([C@@H]2O[C@H](CO)[C@@H](O)[C@H]2O)c1 [NR, nicotinamide riboside] | – | – | 43 | –
O=C(c1cc(Cc2n[nH]c(=O)c3ccccc23)ccc1F)N1CCN(C(=O)C2CC2)CC1 [olaparib, reference compound] | – | – | – | 8
